This passage reports IC50 and Ki results from ChEMBL document CHEMBL1909046, “DrugMatrix in vitro pharmacology data”.

A word on the IC50: it is the concentration at which inhibition is half-maximal. In general, Ki refers to a measure of affinity in units of concentration, obtained from inhibition or displacement.

The structures appear in SMILES notation.

The target of assay [1] is T1, Alpha-1B adrenergic receptor (Rattus norvegicus, UniProt P15823).
T1 sequence (P15823 whole entry): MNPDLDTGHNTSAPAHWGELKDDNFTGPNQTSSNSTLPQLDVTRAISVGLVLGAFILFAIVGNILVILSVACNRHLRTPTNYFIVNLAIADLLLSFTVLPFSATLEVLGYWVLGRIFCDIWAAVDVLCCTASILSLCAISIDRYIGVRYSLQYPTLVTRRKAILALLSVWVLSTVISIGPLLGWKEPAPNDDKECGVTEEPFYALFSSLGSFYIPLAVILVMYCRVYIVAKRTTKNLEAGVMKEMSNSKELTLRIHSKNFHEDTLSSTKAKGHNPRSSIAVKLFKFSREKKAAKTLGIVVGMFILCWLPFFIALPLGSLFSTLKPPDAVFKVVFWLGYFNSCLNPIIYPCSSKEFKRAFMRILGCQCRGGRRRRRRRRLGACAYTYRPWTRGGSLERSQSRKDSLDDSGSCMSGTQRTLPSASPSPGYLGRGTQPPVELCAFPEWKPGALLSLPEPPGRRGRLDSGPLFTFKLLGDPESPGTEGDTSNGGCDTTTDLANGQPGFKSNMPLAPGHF
Briefly: DRUGMATRIX: Alpha-1B adrenergic receptor radioligand binding (ligand: prazosin). It counts as cell membranes, Wistar, Liver, Membrane. The settings on record: Not Active = under 50% inhibition at 10 µM.

The target of assay [2] is Aldo-keto reductase family 1 member B1 (Rattus norvegicus, UniProt P07943). It counts as tissue-based, Lens of camera-type eye.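 Also: inhibition of aldose reductase enzyme activity, measured with DL-glyceraldehyde as the substrate; in other assays of this panel Not Active means under 50% inhibition at 10 µM.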
Assay [3] addresses T2, Vasoactive intestinal polypeptide receptor 1 (Homo sapiens, UniProt P32241).
T2 sequence (P32241 whole entry): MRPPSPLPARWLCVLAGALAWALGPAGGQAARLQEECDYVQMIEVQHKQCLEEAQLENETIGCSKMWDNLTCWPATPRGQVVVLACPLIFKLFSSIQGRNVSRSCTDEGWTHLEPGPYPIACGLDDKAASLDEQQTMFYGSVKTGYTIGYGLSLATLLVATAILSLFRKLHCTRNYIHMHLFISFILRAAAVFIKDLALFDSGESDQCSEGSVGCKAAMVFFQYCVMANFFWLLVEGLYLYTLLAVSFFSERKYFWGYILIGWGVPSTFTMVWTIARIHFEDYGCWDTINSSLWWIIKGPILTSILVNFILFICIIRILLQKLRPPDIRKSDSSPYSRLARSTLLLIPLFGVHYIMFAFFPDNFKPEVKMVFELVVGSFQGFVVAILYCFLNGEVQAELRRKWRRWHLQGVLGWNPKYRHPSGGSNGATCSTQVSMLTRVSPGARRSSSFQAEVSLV
It counts as cell membranes, Membrane. The settings on record: ht-29.

The target of assay [4] is T3, Endothelin-1 receptor (Homo sapiens, UniProt P25101). Also: in other assays of this panel Not Active means under 50% inhibition at 10 µM.
T3 sequence (P25101 whole entry): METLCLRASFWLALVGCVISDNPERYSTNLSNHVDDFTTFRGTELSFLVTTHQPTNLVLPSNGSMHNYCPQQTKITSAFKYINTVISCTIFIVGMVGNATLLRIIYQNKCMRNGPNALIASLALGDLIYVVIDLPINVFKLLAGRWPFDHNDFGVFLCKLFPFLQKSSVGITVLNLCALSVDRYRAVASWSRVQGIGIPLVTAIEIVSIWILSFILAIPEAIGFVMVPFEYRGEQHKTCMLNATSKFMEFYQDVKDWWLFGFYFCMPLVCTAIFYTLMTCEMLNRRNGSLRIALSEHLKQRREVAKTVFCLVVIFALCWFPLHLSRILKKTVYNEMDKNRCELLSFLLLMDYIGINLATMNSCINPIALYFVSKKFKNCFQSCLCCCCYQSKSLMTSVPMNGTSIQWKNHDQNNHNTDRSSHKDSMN
Format: cell membranes, Membrane. The settings on record: cho-k1.

The target of assay [5] is Melanocortin receptor 3 (Homo sapiens, UniProt P41968). It counts as cell membranes, Membrane. The settings on record: hek293. Also: in other assays of this panel Not Active means under 50% inhibition at 10 µM.
Chain of Melanocortin receptor 3 (P41968 whole entry): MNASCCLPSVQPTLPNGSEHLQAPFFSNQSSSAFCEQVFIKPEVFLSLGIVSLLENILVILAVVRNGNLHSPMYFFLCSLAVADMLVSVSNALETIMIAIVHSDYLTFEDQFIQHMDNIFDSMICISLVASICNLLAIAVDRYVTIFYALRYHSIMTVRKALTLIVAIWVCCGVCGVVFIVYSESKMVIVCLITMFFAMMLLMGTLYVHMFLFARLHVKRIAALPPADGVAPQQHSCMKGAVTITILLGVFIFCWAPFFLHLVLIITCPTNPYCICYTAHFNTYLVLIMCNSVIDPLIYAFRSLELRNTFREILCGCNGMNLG
For assay [6], the target named is T4, Neuropeptide Y receptor type 1 (Homo sapiens, UniProt P25929). Also: in other assays of this panel Not Active means under 50% inhibition at 10 µM.
T4 sequence (P25929 whole entry): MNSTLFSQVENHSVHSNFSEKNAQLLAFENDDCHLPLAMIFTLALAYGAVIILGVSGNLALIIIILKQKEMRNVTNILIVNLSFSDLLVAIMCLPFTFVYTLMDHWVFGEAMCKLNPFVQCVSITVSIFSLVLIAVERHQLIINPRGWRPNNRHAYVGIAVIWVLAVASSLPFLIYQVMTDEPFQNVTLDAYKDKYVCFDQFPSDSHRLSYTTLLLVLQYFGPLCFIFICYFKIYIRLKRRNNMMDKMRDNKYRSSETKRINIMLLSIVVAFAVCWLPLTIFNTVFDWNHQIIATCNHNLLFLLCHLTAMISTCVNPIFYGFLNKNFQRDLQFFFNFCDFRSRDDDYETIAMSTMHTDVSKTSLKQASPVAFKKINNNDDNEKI
It counts as cell membranes, Membrane. The settings on record: sk-n-mc.

Assay [7] addresses Nitric oxide synthase 1 (Rattus norvegicus, UniProt P29476). Format: tissue-based, Cerebellum.
In assay [8] the target is T5, Cathepsin G (Homo sapiens, UniProt P08311).
T5 sequence (P08311 whole entry): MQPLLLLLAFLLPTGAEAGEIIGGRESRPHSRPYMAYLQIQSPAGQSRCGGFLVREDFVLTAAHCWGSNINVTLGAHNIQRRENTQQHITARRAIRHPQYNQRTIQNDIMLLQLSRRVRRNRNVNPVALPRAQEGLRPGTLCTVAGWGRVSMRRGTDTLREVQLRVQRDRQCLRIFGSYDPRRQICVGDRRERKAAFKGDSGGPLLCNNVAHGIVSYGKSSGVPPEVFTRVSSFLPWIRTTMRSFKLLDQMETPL
It counts as tissue-based. The settings on record: neutrophil.

Assay [9] addresses T6, Interstitial collagenase (Homo sapiens, UniProt P03956).
T6 sequence (P03956 whole entry): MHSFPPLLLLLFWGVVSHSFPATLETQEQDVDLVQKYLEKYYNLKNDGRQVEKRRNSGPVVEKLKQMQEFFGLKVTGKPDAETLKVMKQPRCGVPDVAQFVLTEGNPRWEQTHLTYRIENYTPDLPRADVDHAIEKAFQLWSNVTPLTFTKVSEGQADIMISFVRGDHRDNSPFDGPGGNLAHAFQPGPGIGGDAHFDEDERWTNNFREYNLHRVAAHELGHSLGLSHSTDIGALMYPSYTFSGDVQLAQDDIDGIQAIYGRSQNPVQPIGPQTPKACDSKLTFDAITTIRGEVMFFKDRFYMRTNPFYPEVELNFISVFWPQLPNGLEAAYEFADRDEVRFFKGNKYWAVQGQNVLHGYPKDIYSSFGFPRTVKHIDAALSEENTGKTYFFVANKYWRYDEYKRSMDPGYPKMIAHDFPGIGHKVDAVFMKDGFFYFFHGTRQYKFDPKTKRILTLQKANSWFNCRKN
Format: tissue-based, Rheumatoid synovial fibroblasts.

Assay [10] deals with Mitogen-activated protein kinase 3 (Homo sapiens, UniProt P27361). Put plainly: DRUGMATRIX: Protein Serine/Threonine Kinase, ERK1 enzyme inhibition (substrate: Myelin Basic Protein). Also on record: species or system Escherichia coli. The settings on record: Not Active = under 50% inhibition at 10 µM.
Chain of Mitogen-activated protein kinase 3 (P27361 whole entry): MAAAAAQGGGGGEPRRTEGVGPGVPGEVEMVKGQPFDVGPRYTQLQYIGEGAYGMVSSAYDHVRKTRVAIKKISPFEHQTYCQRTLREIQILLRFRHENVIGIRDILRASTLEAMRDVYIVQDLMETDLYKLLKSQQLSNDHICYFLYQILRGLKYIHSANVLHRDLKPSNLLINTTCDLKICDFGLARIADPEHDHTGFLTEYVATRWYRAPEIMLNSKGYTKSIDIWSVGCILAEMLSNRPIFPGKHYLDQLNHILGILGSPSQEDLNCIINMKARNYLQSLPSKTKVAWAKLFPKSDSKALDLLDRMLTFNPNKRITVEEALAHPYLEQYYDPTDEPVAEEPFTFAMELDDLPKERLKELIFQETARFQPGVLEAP

Chain of Nitric oxide synthase 1 (P29476 whole entry): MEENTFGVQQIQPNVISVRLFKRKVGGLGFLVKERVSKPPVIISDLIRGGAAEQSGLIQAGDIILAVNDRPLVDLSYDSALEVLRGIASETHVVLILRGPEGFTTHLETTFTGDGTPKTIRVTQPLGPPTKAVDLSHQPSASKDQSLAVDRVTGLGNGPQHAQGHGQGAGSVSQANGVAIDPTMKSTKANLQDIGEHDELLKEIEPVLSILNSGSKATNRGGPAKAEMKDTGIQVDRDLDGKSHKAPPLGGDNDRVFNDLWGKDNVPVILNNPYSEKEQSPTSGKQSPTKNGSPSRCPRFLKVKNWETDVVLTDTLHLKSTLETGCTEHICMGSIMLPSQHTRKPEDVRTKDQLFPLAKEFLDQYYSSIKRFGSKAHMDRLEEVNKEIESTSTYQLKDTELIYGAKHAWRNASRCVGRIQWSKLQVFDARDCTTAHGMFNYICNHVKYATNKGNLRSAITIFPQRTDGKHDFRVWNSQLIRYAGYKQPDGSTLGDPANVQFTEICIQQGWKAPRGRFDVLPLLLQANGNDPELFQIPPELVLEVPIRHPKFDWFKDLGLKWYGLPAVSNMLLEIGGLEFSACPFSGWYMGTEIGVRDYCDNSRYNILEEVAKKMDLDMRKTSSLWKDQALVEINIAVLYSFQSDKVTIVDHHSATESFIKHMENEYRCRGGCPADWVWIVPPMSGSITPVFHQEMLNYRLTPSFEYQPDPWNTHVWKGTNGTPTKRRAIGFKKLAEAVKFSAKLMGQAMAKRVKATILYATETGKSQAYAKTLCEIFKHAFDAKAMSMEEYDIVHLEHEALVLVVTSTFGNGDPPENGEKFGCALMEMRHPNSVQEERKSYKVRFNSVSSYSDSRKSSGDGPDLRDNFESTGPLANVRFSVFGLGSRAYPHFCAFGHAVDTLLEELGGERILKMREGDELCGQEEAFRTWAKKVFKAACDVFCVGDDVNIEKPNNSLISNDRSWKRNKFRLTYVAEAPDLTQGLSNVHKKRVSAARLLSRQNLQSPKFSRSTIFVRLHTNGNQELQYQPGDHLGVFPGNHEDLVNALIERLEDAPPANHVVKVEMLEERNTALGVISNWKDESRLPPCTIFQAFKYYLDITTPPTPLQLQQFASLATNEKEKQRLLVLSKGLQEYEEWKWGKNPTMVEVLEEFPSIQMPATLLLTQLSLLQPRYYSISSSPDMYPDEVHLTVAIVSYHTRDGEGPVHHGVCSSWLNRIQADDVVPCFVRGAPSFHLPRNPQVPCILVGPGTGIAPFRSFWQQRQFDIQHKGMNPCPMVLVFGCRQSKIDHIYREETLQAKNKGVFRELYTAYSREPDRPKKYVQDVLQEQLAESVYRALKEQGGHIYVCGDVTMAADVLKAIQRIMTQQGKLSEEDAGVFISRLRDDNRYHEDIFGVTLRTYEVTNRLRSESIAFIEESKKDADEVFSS

As to `CC1(C)[C@@H](O[C@H]2O[C@H](C(=O)O)[C@@H](O)[C@H](O)[C@H]2O[C@@H]2O[C@H](C(=O)O)[C@@H](O)[C@H](O)[C@H]2O)CC[C@]2(C)[C@H]3C(=O)C=C4[C@@H]5C[C@@](C)(C(=O)O)CC[C@]5(C)CC[C@@]4(C)[C@]3(C)CC[C@@H]12` [GLYCYRRHIZIN], the IC50 entry in assay [1], in [2], in assay [3], in [4], in assay [5] and in [6] was “Not Active” in each case. The IC50 result in assay [7], in assay [8], in assay [9] and in [10] was “Not Active” each time.

As for `COC1=CC(=O)C[C@@H](C)[C@]12Oc1c(Cl)c(OC)cc(OC)c1C2=O` [GRISEOFULVIN], the IC50 entry in [1], in assay [2], in assay [3], in assay [4], in assay [5] and in assay [6] was “Not Active” each time. The IC50 result in [7], in assay [8], in assay [9] and in assay [10] was “Not Active” in each case.

`C/C=C1\[C@H]2C=C(C)C[C@]1(N)c1ccc(=O)[nH]c1C2` [HUPERZINE A]: the IC50 result in [1], in assay [2], in assay [3], in assay [4], in assay [5] and in assay [6] was “Not Active” in each case. The IC50 entry in assay [7], in [8], in assay [9] and in assay [10] was “Not Active” each time.

In the case of `NS(=O)(=O)c1cc2c(cc1Cl)NCNS2(=O)=O` [HYDROCHLOROTHIAZIDE], the IC50 entry in [1], in [2], in [3], in [4], in [5] and in [6] was “Not Active” in each case. Besides, the IC50 result in [7], in assay [8], in assay [9] and in assay [10] was “Not Active” each time.

With `O=P1(NCCCl)OCCCN1CCCl` (stereo unspecified) [IFOSFAMIDE], the IC50 result in [1], in assay [2], in assay [3], in assay [4], in assay [5] and in [6] was “Not Active” throughout. The IC50 entry in [7], in [8], in assay [9] and in assay [10] was “Not Active” each time.

As for `CN1CCC[C@H]1c1cccnc1` [NICOTINE], the IC50 entry in [1], in assay [2], in [3], in [4], in assay [5] and in assay [6] was “Not Active” in each case. For the same compound, the IC50 entry in [7], in [8], in [9] and in assay [10] was “Not Active” each time.

Take `O=C1CN=C(c2ccccc2)c2cc([N+](=O)[O-])ccc2N1` [NITRAZEPAM]: the IC50 result in assay [1], in [2], in [3], in assay [4], in assay [5] and in assay [6] was “Not Active” throughout. The IC50 result in assay [7], in assay [8], in assay [9] and in assay [10] was “Not Active” in each case.

Consider `CNCCC=C1c2ccccc2CCc2ccccc21` [NORTRIPTYLINE], for which the half-maximal inhibitory concentration (IC50) in assay [1] (read-out: IC50) was 207 nM; in assay [2], “Not Active”; in assay [3] it was “Not Active”; in assay [4], “Not Active”; in [5], “Not Active”; in assay [6], “Not Active”. Moreover, the IC50 entry in [7], in assay [8], in [9] and in [10] was “Not Active” in each case. Further, the Ki in [1] (read-out: Ki) was found to be 114 nM.

As for `CC1COc2c(N3CCN(C)CC3)c(F)cc3c(=O)c(C(=O)O)cn1c23` (stereo unspecified) [OFLOXACIN], the half-inhibitory concentration (IC50) entry in assay [1], in assay [2], in assay [3], in assay [4], in assay [5] and in assay [6] was “Not Active” in each case. Also, the IC50 entry in [7], in assay [8], in assay [9] and in assay [10] was “Not Active” throughout.
